{"source": "paper PMC6208650", "assay": "on-resin lactamisation, Asp side-chain COOH (C-terminal residue, anchored via Rink amide) + alpha-NH2 of N-terminal Dap(Boc); HATU/DIEA 1.05:2.1 equiv, overnight; then TFA cleavage", "details": "22-membered ring, NMP, 57.0 mM; for ring closure, product found: scale: 1 = cyclic product is largest ESI-MS signal, 0 = linear; for ring closure, conversion by HPLC: scale: % crude HPLC purity, 320 nm area of tallest peak or peak cluster", "key": {"[1]": {"details": "from CC(C)(C)OC(=O)NC[C@H](N)C(=O)NCC(=O)N[C@@H](CNC(=O)c1cnc2ccccc2n1)C(=O)NCC(=O)N[C@@H](CNC(=O)c1cnc2ccccc2n1)C(=O)N[C@@H](CNC(=O)c1cnc2ccccc2n1)C(=O)N[C@@H](CC(=O)O)C(N)=O"}, "[2]": {"details": "from CC(C)(C)OC(=O)NC[C@H](N)C(=O)NCC(=O)NCC(=O)N[C@@H](CNC(=O)c1cnc2ccccc2n1)C(=O)N[C@@H](CNC(=O)c1cnc2ccccc2n1)C(=O)N[C@@H](CNC(=O)c1cnc2ccccc2n1)C(=O)N[C@@H](CC(=O)O)C(N)=O"}, "[3]": {"details": "from CC(C)(C)OC(=O)NC[C@H](N)C(=O)N[C@@H](CNC(=O)c1cnc2ccccc2n1)C(=O)NCC(=O)N[C@@H](CNC(=O)c1cnc2ccccc2n1)C(=O)NCC(=O)NCC(=O)N[C@@H](CC(=O)O)C(N)=O"}, "[4]": {"details": "from CC(C)(C)OC(=O)NC[C@H](N)C(=O)N[C@@H](CNC(=O)c1cnc2ccccc2n1)C(=O)NCC(=O)NCC(=O)N[C@@H](CNC(=O)c1cnc2ccccc2n1)C(=O)NCC(=O)N[C@@H](CC(=O)O)C(N)=O"}, "[5]": {"details": "from CC(C)(C)OC(=O)NC[C@H](N)C(=O)NCC(=O)N[C@@H](CNC(=O)c1cnc2ccccc2n1)C(=O)N[C@@H](CNC(=O)c1cnc2ccccc2n1)C(=O)N[C@@H](CNC(=O)c1cnc2ccccc2n1)C(=O)NCC(=O)N[C@@H](CC(=O)O)C(N)=O"}, "[6]": {"details": "from CC(C)(C)OC(=O)NC[C@H](N)C(=O)NCC(=O)N[C@@H](CNC(=O)c1cnc2ccccc2n1)C(=O)N[C@@H](CNC(=O)c1cnc2ccccc2n1)C(=O)NCC(=O)N[C@@H](CNC(=O)c1cnc2ccccc2n1)C(=O)N[C@@H](CC(=O)O)C(N)=O"}, "[7]": {"details": "from CC(C)(C)OC(=O)NC[C@H](N)C(=O)N[C@@H](CNC(=O)c1cnc2ccccc2n1)C(=O)N[C@@H](CNC(=O)c1cnc2ccccc2n1)C(=O)NCC(=O)NCC(=O)N[C@@H](CNC(=O)c1cnc2ccccc2n1)C(=O)N[C@@H](CC(=O)O)C(N)=O"}, "[8]": {"details": "from CC(C)(C)OC(=O)NC[C@H](N)C(=O)NCC(=O)NCC(=O)N[C@@H](CNC(=O)c1cnc2ccccc2n1)C(=O)NCC(=O)NCC(=O)N[C@@H](CC(=O)O)C(N)=O"}, "[9]": {"details": "from CC(C)(C)OC(=O)NC[C@H](N)C(=O)NCC(=O)NCC(=O)N[C@@H](CNC(=O)c1cnc2ccccc2n1)C(=O)N[C@@H](CNC(=O)c1cnc2ccccc2n1)C(=O)NCC(=O)N[C@@H](CC(=O)O)C(N)=O"}, "[10]": {"details": "from CC(C)(C)OC(=O)NC[C@H](N)C(=O)N[C@@H](CNC(=O)c1cnc2ccccc2n1)C(=O)N[C@@H](CNC(=O)c1cnc2ccccc2n1)C(=O)NCC(=O)NCC(=O)NCC(=O)N[C@@H](CC(=O)O)C(N)=O"}, "[11]": {"details": "from CC(C)(C)OC(=O)NC[C@H](N)C(=O)NCC(=O)N[C@@H](CNC(=O)c1cnc2ccccc2n1)C(=O)NCC(=O)N[C@@H](CNC(=O)c1cnc2ccccc2n1)C(=O)NCC(=O)N[C@@H](CC(=O)O)C(N)=O"}}}
{"smiles": "NC[C@@H]1NC(=O)C[C@@H](C(N)=O)NC(=O)[C@H](CNC(=O)c2cnc3ccccc3n2)NC(=O)[C@H](CNC(=O)c2cnc3ccccc3n2)NC(=O)CNC(=O)[C@H](CNC(=O)c2cnc3ccccc3n2)NC(=O)CNC1=O", "values": [{"measurement": "ring closure, product found", "setting": "[1]", "result": 0}, {"measurement": "ring closure, conversion by HPLC", "setting": "[1]", "result": "< 39"}]}
{"smiles": "NC[C@@H]1NC(=O)C[C@@H](C(N)=O)NC(=O)[C@H](CNC(=O)c2cnc3ccccc3n2)NC(=O)[C@H](CNC(=O)c2cnc3ccccc3n2)NC(=O)[C@H](CNC(=O)c2cnc3ccccc3n2)NC(=O)CNC(=O)CNC1=O", "values": [{"measurement": "ring closure, product found", "setting": "[2]", "result": 0}, {"measurement": "ring closure, conversion by HPLC", "setting": "[2]", "result": "< 48"}]}
{"smiles": "NC[C@@H]1NC(=O)C[C@@H](C(N)=O)NC(=O)CNC(=O)CNC(=O)[C@H](CNC(=O)c2cnc3ccccc3n2)NC(=O)CNC(=O)[C@H](CNC(=O)c2cnc3ccccc3n2)NC1=O", "values": [{"measurement": "ring closure, product found", "setting": "[3]", "result": 1}, {"measurement": "ring closure, conversion by HPLC", "setting": "[3]", "result": 39}]}
{"smiles": "NC[C@@H]1NC(=O)C[C@@H](C(N)=O)NC(=O)CNC(=O)[C@H](CNC(=O)c2cnc3ccccc3n2)NC(=O)CNC(=O)CNC(=O)[C@H](CNC(=O)c2cnc3ccccc3n2)NC1=O", "values": [{"measurement": "ring closure, product found", "setting": "[4]", "result": 1}, {"measurement": "ring closure, conversion by HPLC", "setting": "[4]", "result": 53}]}
{"smiles": "NC[C@@H]1NC(=O)C[C@@H](C(N)=O)NC(=O)CNC(=O)[C@H](CNC(=O)c2cnc3ccccc3n2)NC(=O)[C@H](CNC(=O)c2cnc3ccccc3n2)NC(=O)[C@H](CNC(=O)c2cnc3ccccc3n2)NC(=O)CNC1=O", "values": [{"measurement": "ring closure, product found", "setting": "[5]", "result": 1}, {"measurement": "ring closure, conversion by HPLC", "setting": "[5]", "result": 79}]}
{"smiles": "NC[C@@H]1NC(=O)C[C@@H](C(N)=O)NC(=O)[C@H](CNC(=O)c2cnc3ccccc3n2)NC(=O)CNC(=O)[C@H](CNC(=O)c2cnc3ccccc3n2)NC(=O)[C@H](CNC(=O)c2cnc3ccccc3n2)NC(=O)CNC1=O", "values": [{"measurement": "ring closure, product found", "setting": "[6]", "result": 0}, {"measurement": "ring closure, conversion by HPLC", "setting": "[6]", "result": "< 34"}]}
{"smiles": "NC[C@@H]1NC(=O)C[C@@H](C(N)=O)NC(=O)[C@H](CNC(=O)c2cnc3ccccc3n2)NC(=O)CNC(=O)CNC(=O)[C@H](CNC(=O)c2cnc3ccccc3n2)NC(=O)[C@H](CNC(=O)c2cnc3ccccc3n2)NC1=O", "values": [{"measurement": "ring closure, product found", "setting": "[7]", "result": 1}, {"measurement": "ring closure, conversion by HPLC", "setting": "[7]", "result": 48}]}
{"smiles": "NC[C@@H]1NC(=O)C[C@@H](C(N)=O)NC(=O)CNC(=O)CNC(=O)[C@H](CNC(=O)c2cnc3ccccc3n2)NC(=O)CNC(=O)CNC1=O", "note": "[H-Dap(Boc)-Gly-Gly-Dap(Qxc)-Gly-Gly-Asp(OH)-NH-Rink resin]", "values": [{"measurement": "ring closure, product found", "setting": "[8]", "result": 1}, {"measurement": "ring closure, conversion by HPLC", "setting": "[8]", "result": 84}]}
{"smiles": "NC[C@@H]1NC(=O)C[C@@H](C(N)=O)NC(=O)CNC(=O)[C@H](CNC(=O)c2cnc3ccccc3n2)NC(=O)[C@H](CNC(=O)c2cnc3ccccc3n2)NC(=O)CNC(=O)CNC1=O", "values": [{"measurement": "ring closure, product found", "setting": "[9]", "result": 1}, {"measurement": "ring closure, conversion by HPLC", "setting": "[9]", "result": 60}]}
{"smiles": "NC[C@@H]1NC(=O)C[C@@H](C(N)=O)NC(=O)CNC(=O)CNC(=O)CNC(=O)[C@H](CNC(=O)c2cnc3ccccc3n2)NC(=O)[C@H](CNC(=O)c2cnc3ccccc3n2)NC1=O", "values": [{"measurement": "ring closure, product found", "setting": "[10]", "result": 1}, {"measurement": "ring closure, conversion by HPLC", "setting": "[10]", "result": 35}]}
{"smiles": "NC[C@@H]1NC(=O)C[C@@H](C(N)=O)NC(=O)CNC(=O)[C@H](CNC(=O)c2cnc3ccccc3n2)NC(=O)CNC(=O)[C@H](CNC(=O)c2cnc3ccccc3n2)NC(=O)CNC1=O", "values": [{"measurement": "ring closure, product found", "setting": "[11]", "result": 1}, {"measurement": "ring closure, conversion by HPLC", "setting": "[11]", "result": 79}]}
